Laboratory results from ChEMBL document CHEMBL5506073, “Discovery of Novel Ortho-Aminophenol Derivatives Targeting Lipid Peroxidation with Potent Antiferroptotic Activities” (J Med Chem, 2024).
The source made the active and inactive calls. The rule behind the calls is not given here.

What was measured:
HT-1080 [1] = assay: Inhibition of RSL3-induced ferroptosis in human HT-1080 cells assessed as cell viability incubated for 24 hrs by CCK8 assay; assay type: functional, cell-based; settings: HT-1080, 24 h
[2] = Antioxidant activity assessed as DPPH radical scavenging activity at 10 uM incubated for 30 mins by absorbance based assay; assay type: functional
HT-1080 [3] = assay: Inhibition of RSL3-induced ferroptosis in human HT-1080 cells assessed as cell viability at 0.5 uM incubated for 24 hrs by CCK8 assay; assay type: functional, cell-based

SMILES	EC50 (HT-1080 [1]) [nM]	Activity [2]	inhibition (HT-1080 [3])
COc1ccc(CSc2nnc(-c3cccc(O)c3N)o2)cc1	177	–	–
CCOC(=O)c1ccc(NC2CCCCC2)c(N)c1	203	–	–
Nc1c(O)cccc1-c1nnc(SCC(=O)O)o1	> 1000	–	–
CCCCOC(=O)c1cccc(O)c1N	385	Active	Active
Nc1c(O)cccc1-c1nc2cc(Cl)c(Cl)cc2[nH]1	293	–	–
N#Cc1ccc(CSc2nnc(-c3cccc(O)c3N)o2)cc1	528	–	–
Cc1ccc(/C=N/NC(=O)c2cccc(O)c2N)cc1	2620	–	–
Nc1c(O)cccc1-c1nnc(SCc2ccccc2)o1	238	–	–
CC(C)OC(=O)c1cccc(O)c1N	388	Active	Active
Nc1c(O)cccc1-c1nnc(S)o1	366	–	–
CSc1nnc(-c2cccc(O)c2N)o1	99.2	–	–
Nc1c(O)cccc1C(=O)N/N=C/c1ccccn1	191	–	–
Nc1c(O)cccc1-c1nc2ccccc2[nH]1	263	–	–
Nc1c(O)cccc1-c1nnc(SCc2ccc([N+](=O)[O-])cc2)o1	871	–	–
